# What was measured:
# Test in all cases: biochemical
# ACK = biological target: T1, ACK (Homo sapiens, UniProt Q07912)
# T1 construct: gene TNK2
# Experimental: (§1) These assays rely on the phosphorylation of small synthetic peptides developed for each kinase, and detect activity by changes in electrophoretic mobility (MSA assay) or by binding of a fluorescently labelled peptide to a large micro-particle and concomitant polarization increases (IMAP assay). Reaction conditions for each kinase are described in Supplementary Table S5. All kinase assays were carried out at Carna Biosciences (Kobe, Japan). The inhibitory map was constructed using Kinome Render[41]. Inhibitor (4×), substrate/ATP-Metal (4×), and kinase (2×) solutions were prepared with assay buffer (20 mM HEPES, 0.01% Triton X-100, 2 mM DTT, pH 7.5) and mixed in 384-well plates at room temperature for 1 or 5 h depending on the kinase. Reactions were stopped by the addition of termination buffer (QuickScout Screening Assist MSA; Carna Biosciences). The entire reaction mixture was then applied to a LabChip system (Perkin-Elmer, Waltham, MA, USA) and the product and substrate peptide peaks were separated and quantified, and then heights of product (P) and substrate (S) peptide peaks were calculated. The level of kinase activity was evaluated with the following equation: activity = P/(P + S).
# AMPKα1/β1/γ1 = biological target: T2, AMPKα1/β1/γ1 (Homo sapiens, UniProt Q13131)
# T2 construct: gene PRKAA1
# Experimental: as §1
# AurC = biological target: T3, AurC (Homo sapiens, UniProt Q9UQB9)
# T3 construct: gene AURKC
# Experimental: as §1
# DDR1 = DDR1 (Homo sapiens, UniProt Q08345)
# Experimental: as §1
# DYRK3 = DYRK3 (Homo sapiens, UniProt O43781)
# Experimental: as §1
# EGFR(T790M) = EGFR(T790M) (Homo sapiens, UniProt P00533, T790M)
# Experimental: as §1
# EPHB4 = EPHB4 (Homo sapiens, UniProt P54760)
# Sequence of EPHB4 (P54760 whole entry): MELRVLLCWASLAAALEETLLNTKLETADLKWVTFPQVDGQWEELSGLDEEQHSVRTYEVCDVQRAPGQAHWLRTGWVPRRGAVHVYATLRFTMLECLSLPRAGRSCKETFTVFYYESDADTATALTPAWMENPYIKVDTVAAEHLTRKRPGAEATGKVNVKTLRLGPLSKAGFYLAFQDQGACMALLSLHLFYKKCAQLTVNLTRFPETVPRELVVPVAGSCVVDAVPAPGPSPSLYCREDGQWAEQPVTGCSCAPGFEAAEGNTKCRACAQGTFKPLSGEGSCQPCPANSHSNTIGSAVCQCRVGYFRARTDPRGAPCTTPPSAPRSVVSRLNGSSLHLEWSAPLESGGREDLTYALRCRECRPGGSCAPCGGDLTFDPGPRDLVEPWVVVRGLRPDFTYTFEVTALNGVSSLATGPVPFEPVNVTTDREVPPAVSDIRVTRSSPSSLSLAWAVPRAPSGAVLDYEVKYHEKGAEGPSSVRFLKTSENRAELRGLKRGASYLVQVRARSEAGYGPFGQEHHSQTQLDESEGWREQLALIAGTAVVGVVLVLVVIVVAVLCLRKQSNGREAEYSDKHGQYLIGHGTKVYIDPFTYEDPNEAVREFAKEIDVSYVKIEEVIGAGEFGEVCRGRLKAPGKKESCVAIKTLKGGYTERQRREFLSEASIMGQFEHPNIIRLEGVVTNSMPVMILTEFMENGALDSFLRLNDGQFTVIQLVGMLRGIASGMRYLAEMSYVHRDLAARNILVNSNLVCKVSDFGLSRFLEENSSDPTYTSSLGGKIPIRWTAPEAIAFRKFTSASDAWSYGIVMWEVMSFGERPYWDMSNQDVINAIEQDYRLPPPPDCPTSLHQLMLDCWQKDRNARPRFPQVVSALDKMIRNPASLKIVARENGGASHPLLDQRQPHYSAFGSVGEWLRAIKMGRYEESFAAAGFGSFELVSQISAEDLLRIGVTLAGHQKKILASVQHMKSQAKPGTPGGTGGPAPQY
# Experimental: as §1
# Erk1 = biological target: T4, Erk1 (Homo sapiens, UniProt P27361)
# T4 construct: gene MAPK3
# Experimental: as §1
# FGFR4 = FGFR4 (Homo sapiens, UniProt P22455)
# Experimental: as §1
# GSK3β = biological target: T5, GSK3β (Homo sapiens, UniProt P49841)
# T5 construct: gene GSK3B
# Experimental: as §1
# HER2 = biological target: T6, HER2 (Homo sapiens, UniProt P04626)
# T6 construct: gene ERBB2
# Experimental: as §1
# HIPK3 = HIPK3 (Homo sapiens, UniProt Q9H422)
# Sequence of HIPK3 (Q9H422 whole entry): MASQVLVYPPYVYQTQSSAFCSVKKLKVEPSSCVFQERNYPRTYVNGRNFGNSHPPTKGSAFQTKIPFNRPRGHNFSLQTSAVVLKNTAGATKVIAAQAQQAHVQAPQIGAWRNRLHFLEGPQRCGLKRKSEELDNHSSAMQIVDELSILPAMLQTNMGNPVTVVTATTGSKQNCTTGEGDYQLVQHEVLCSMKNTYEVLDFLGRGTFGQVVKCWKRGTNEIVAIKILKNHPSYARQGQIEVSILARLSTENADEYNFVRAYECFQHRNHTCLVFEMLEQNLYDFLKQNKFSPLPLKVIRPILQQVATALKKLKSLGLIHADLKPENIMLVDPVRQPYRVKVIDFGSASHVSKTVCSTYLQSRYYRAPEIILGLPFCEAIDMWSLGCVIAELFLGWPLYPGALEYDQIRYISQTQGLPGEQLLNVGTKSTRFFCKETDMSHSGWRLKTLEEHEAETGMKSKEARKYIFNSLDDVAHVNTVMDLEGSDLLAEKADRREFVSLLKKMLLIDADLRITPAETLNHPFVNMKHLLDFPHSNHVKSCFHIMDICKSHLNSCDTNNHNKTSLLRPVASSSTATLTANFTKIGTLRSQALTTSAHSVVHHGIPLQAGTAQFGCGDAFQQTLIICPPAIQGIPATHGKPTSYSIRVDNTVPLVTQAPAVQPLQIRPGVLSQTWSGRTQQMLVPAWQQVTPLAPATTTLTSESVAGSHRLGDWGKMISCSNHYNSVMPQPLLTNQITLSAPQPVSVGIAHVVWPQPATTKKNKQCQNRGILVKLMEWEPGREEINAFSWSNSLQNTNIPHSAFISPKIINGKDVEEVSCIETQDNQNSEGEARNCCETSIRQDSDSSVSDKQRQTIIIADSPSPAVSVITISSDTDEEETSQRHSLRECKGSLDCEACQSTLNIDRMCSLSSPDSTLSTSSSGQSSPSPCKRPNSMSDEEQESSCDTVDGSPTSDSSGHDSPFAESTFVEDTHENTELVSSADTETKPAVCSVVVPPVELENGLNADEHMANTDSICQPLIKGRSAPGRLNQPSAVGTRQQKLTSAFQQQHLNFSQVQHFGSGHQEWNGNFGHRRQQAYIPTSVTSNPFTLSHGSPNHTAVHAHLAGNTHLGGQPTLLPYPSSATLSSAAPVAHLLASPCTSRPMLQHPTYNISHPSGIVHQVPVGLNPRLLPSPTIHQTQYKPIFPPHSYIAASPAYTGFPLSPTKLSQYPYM
# Experimental: as §1
# IKKε = biological target: T7, IKKε (Homo sapiens, UniProt Q14164)
# T7 construct: gene IKBKE
# Experimental: as §1
# INSR = INSR (Homo sapiens, UniProt P06213)
# Experimental: as §1
# JNK1 = biological target: T8, JNK1 (Homo sapiens, UniProt P45983)
# T8 construct: gene MAPK8
# Experimental: as §1
# JNK3 = biological target: T9, JNK3 (Homo sapiens, UniProt P53779)
# T9 construct: gene MAPK10
# T9 sequence (P53779 whole entry): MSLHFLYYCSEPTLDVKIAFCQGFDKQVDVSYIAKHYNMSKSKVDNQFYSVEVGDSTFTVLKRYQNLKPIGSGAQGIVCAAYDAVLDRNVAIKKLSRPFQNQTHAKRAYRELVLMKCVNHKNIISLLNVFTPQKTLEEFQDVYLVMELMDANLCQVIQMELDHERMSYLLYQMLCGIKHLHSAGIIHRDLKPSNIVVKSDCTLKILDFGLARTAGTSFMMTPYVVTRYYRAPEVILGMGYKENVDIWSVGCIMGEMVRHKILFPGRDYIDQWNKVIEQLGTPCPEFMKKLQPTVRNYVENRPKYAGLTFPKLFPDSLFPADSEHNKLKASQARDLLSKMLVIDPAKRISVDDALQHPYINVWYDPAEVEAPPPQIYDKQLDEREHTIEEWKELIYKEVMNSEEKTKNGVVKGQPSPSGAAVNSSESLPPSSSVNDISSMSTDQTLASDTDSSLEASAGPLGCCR
# Experimental: as §1
# LOK = biological target: T10, LOK (Homo sapiens, UniProt O94804)
# T10 construct: gene STK10
# Experimental: as §1
# MAP4K2 = MAP4K2 (Homo sapiens, UniProt Q12851)
# Experimental: as §1
# MNK1 = biological target: T11, MNK1 (Homo sapiens, UniProt Q9BUB5)
# T11 construct: gene MKNK1
# Experimental: as §1
# MRCKβ = biological target: T12, MRCKβ (Homo sapiens, UniProt Q9Y5S2)
# T12 construct: gene CDC42BPB
# Experimental: as §1
# NuaK1 = NuaK1 (Homo sapiens, UniProt O60285)
# Experimental: as §1
# NuaK2 = NuaK2 (Homo sapiens, UniProt Q9H093)
# Experimental: as §1
# PDGFRα(D842V) = biological target: T13, PDGFRα(D842V) (Homo sapiens, UniProt P16234, D842V)
# T13 construct: gene PDGFRA
# T13 sequence (P16234 whole entry D842V): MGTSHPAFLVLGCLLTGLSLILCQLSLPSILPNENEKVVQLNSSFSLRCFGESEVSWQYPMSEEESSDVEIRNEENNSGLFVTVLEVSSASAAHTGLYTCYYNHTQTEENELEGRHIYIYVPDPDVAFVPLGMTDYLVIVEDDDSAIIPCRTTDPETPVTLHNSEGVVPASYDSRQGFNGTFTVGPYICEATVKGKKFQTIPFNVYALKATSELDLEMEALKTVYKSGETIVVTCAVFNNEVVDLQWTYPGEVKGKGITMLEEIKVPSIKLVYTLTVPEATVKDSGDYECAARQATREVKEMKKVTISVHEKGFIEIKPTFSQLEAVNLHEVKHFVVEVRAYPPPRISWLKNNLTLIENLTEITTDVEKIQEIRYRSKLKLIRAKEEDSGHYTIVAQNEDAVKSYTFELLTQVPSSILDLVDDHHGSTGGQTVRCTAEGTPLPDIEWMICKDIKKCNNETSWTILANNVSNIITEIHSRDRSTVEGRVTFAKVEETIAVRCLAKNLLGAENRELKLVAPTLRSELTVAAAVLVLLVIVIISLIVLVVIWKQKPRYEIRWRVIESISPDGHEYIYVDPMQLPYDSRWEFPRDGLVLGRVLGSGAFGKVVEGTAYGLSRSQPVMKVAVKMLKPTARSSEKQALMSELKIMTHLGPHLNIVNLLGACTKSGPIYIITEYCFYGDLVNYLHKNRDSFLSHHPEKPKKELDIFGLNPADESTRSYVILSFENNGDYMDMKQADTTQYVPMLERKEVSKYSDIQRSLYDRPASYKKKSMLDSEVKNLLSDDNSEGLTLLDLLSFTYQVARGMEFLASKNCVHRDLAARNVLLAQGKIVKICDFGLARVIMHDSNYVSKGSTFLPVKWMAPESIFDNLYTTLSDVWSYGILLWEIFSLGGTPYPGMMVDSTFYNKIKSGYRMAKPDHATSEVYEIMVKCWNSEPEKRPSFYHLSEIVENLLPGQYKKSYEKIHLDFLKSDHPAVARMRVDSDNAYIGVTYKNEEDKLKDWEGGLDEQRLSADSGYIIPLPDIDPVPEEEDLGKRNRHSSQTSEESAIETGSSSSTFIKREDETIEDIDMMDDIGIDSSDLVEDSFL
# Experimental: as §1
# PHKG2 = PHKG2 (Homo sapiens, UniProt P15735)
# Experimental: as §1
# PKR = biological target: T14, PKR (Homo sapiens, UniProt P19525)
# T14 construct: gene EIF2AK2
# Experimental: as §1
# RET(Y791F) = RET(Y791F) (Homo sapiens, UniProt P07949, Y791F)
# Sequence of RET(Y791F) (P07949 whole entry Y791F): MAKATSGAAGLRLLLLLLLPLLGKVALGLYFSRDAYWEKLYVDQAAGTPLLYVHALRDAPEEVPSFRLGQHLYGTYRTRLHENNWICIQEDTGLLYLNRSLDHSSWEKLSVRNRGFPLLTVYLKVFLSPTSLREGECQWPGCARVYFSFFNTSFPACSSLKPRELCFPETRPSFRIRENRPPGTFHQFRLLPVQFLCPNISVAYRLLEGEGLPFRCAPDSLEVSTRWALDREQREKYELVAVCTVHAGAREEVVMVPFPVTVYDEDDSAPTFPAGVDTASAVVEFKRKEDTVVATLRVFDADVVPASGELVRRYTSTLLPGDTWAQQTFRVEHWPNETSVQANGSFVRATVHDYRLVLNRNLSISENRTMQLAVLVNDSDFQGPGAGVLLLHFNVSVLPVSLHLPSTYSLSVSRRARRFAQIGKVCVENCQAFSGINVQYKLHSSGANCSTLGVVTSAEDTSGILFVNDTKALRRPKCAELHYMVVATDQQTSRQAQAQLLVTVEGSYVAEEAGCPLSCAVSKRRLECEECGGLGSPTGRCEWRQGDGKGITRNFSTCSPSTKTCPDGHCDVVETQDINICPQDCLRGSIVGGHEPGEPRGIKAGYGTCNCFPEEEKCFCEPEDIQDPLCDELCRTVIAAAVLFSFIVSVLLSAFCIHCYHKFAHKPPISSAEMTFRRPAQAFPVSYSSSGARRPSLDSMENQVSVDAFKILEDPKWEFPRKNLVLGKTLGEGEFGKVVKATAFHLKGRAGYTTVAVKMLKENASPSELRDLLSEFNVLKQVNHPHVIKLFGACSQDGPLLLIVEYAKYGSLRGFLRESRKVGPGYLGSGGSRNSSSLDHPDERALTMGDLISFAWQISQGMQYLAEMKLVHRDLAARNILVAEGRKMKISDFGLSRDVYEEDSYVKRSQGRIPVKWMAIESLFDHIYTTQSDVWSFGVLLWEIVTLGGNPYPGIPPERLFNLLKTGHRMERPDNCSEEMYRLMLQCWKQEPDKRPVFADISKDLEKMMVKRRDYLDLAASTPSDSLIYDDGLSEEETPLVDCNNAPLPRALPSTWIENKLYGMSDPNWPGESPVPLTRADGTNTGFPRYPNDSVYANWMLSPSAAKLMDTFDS
# Experimental: as §1
# ROS = biological target: T15, ROS (Homo sapiens, UniProt P08922)
# T15 construct: gene ROS1
# Experimental: as §1
# SGK2 = SGK2 (Homo sapiens, UniProt Q9HBY8)
# Experimental: as §1
# SIK = biological target: T16, SIK (Homo sapiens, UniProt P57059)
# T16 construct: gene SIK1
# Experimental: as §1
# SYK = SYK (Homo sapiens, UniProt P43405)
# Experimental: as §1
# WNK3 = WNK3 (Homo sapiens, UniProt Q9BYP7)
# Experimental: as §1
compound,measurement,setting,value
"c1cc(-c2ccc3[nH]ncc3c2)ccn1 [TG693, 5-(4-pyridinyl)-1H-indazole]",inhibition at 1 µM,ACK,-1.1%
same,inhibition at 1 µM,AMPKα1/β1/γ1,-6.5%
same,inhibition at 1 µM,AurC,2.5%
same,inhibition at 1 µM,DDR1,-6%
same,inhibition at 1 µM,DYRK3,64%
same,inhibition at 1 µM,EGFR(T790M),-0.2%
same,inhibition at 1 µM,EPHB4,-1.5%
same,inhibition at 1 µM,Erk1,1.4%
same,inhibition at 1 µM,FGFR4,4.3%
same,inhibition at 1 µM,GSK3β,8.5%
same,inhibition at 1 µM,HER2,-3.8%
same,inhibition at 1 µM,HIPK3,-0.7%
same,inhibition at 1 µM,IKKε,6.1%
same,inhibition at 1 µM,INSR,-5.9%
same,inhibition at 1 µM,JNK1,-18%
same,inhibition at 1 µM,JNK3,-4.4%
same,inhibition at 1 µM,LOK,5.9%
same,inhibition at 1 µM,MAP4K2,1.9%
same,inhibition at 1 µM,MNK1,45.7%
same,inhibition at 1 µM,MRCKβ,-7.3%
same,inhibition at 1 µM,NuaK1,7.5%
same,inhibition at 1 µM,NuaK2,0.4%
same,inhibition at 1 µM,PDGFRα(D842V),0.8%
same,inhibition at 1 µM,PHKG2,6.3%
same,inhibition at 1 µM,PKR,1.2%
same,inhibition at 1 µM,RET(Y791F),3%
same,inhibition at 1 µM,ROS,8.1%
same,inhibition at 1 µM,SGK2,-5.4%
same,inhibition at 1 µM,SIK,3.2%
same,inhibition at 1 µM,SYK,-60.9%
same,inhibition at 1 µM,WNK3,-4.9%

# From paper PMC5448077, “Development of an orally available inhibitor of CLK1 for skipping a mutated dystrophin exon in Duchenne muscular dystrophy” (Scientific Reports, 2017)
